Experiments:
Aspergillus niger = test: Antimicrobial study against Aspergillus niger (mold); format: cell-based; conditions: methylolated C8/10 10,800 ppm, methylolated lauric 11,400 ppm, DMDMH 3,000 ppm, others 14,700 ppm
Procedure: (§1) The antimicrobial properties of typical esters (I) and (Ia) were tested by minimum inhibitory concentration (MIC) tests, along with certain known substances, against […] strains of organisms: a mold, Aspergillus niger; a gram-positive bacteria, Staphylococcus aureus; and two gram-negative bacteria, Escherichia coli and Pseudomonas aeruginosa. […] These tests were used to determine any effect on biocidal activity of the varying chain length of the ester.
(§2) The known substances, on which identical tests were also performed, included the biocide, dimethyloldimethylhydantoin or DMDMH (iv), and a series of three surfactants, i.e., the three common emulsifiers, sodium lauryl sulfate (SLS); ethylene glycol distearate (EGDS), in the form of the commercial product PEGOSPERSE 50 DS (Lonza Inc.); and polyoxyethylene 20 sorbitan monoleate (POE 20 SMO), in the form of the commercial product GLYCOSPERSE 0 20 (Lonza Inc.).
(§3) The tests entailed contaminating a preexisting micro-colony with a known quantity (ppm, concentration) of test material. Each colony was then examined periodically over a one week period. […] A test was deemed non-efficacious when there was no decrease in colony size. In an effort to avoid any possible solvent effect, the micro-study was conducted in a totally aqueous solvent system without use of any other solvent.

Staphylococcus aureus = test: Antimicrobial study against Staphylococcus aureus (gram-positive bacteria); format: cell-based; conditions: methylolated C8/10 10,800 ppm, methylolated lauric 11,400 ppm, DMDMH 3,000 ppm, others 14,700 ppm
Procedure: as §1, §2, §3

Escherichia coli = test: Antimicrobial study against Escherichia coli (gram-negative bacteria); format: cell-based; conditions: methylolated C8/10 10,800 ppm, methylolated lauric 11,400 ppm, DMDMH 3,000 ppm, others 14,700 ppm
Procedure: as §1, §2, §3

Pseudomonas aeruginosa = test: Antimicrobial study against Pseudomonas aeruginosa (gram-negative bacteria); format: cell-based; conditions: methylolated C8/10 10,800 ppm, methylolated lauric 11,400 ppm, DMDMH 3,000 ppm, others 14,700 ppm
Procedure: as §1, §2, §3

[1] = as formaldehyde donor; cited from earlier work
[2] = tested on: mold, and gram-positive and gram-negative bacteria; test: Antimicrobial tests, overall biocidal effectiveness; format: cell-based; conditions: under the test conditions
Procedure: as §1, §2, §3

[3] = Surface tension tests (cmc, Gibbs' Free Energy of Micellation); format: physicochemical
Procedure: Surface tension tests were conducted as to the relationship between the fatty acid aliphatic chain length, i.e. number of carbon atoms, in the esters (I), and their performance as surfactants. The length of the hydrophobic chain of a molecule is considered the major contributing factor to the critical micelle concentration (cmc) value of a surfactant. This value is obtained from surface tension measurement data. The lower the cmc, the more readily the material will form micelles.
The Gibbs' Free Energy of Micellation (ΔG°cmc) and the ΔG°cmc per --CH2 -- can be determined if the cmc is known.
The ΔG°cmc is a calculated value obtained by Equation 1.
ΔG°cmc =2.303RT(log cmc-log[water]) (Eq. 1)
The ΔG°cmc per --CH2 -- value is obtained from the slope of the straight line curve formed from a plot of ΔG°cmc versus the number of carbon atoms in the lipophilic chain.
The cmc values were based on surface tension tests conducted with a tensiometer (Cenco-DuNoug Precision Model #70535, direct reading model) to determine the upward surface tension at the liquid-air surface of the test ester/water solution. The methods used to calibrate the tensiometer, calculate the "correction factor" (used to correct for the difference between the apparent and true surface tension), and collect data, were conducted as described in the manual for the instrument. Sodium lauryl sulfate (SLS) and distilled water were used as reference samples.
On completing data collection, plots of the surface tension (dynes) versus -log of the concentration (mols/liter) were prepared, using only the "corrected" surface tension value, obtained by applying the noted "correction factor" in each case. The […] was found by multiplying the "apparent" surface tension by a calculated correction factor.
The critical micelle concentration (cmc) for each sample was determined by locating the point in the curve where the surface tension first begins to level off, per a known procedure.

SMILES	Colony Count (Aspergillus niger; Day 0)	Colony Count (Aspergillus niger; Day 1)	Colony Count (Aspergillus niger; Day 2)	Colony Count (Aspergillus niger; Day 3)	Colony Count (Aspergillus niger; Day 7)	Colony Count (Staphylococcus aureus; Day 0)	Colony Count (Staphylococcus aureus; Day 1)	Colony Count (Staphylococcus aureus; Day 2)	Colony Count (Staphylococcus aureus; Day 3)	Colony Count (Staphylococcus aureus; Day 7)	Colony Count (Escherichia coli; Day 0)	Colony Count (Escherichia coli; Day 1)	Colony Count (Escherichia coli; Day 2)	Colony Count (Escherichia coli; Day 3)	Colony Count (Escherichia coli; Day 7)	Colony Count (Pseudomonas aeruginosa; Day 0)	Colony Count (Pseudomonas aeruginosa; Day 1)	Colony Count (Pseudomonas aeruginosa; Day 2)	Colony Count (Pseudomonas aeruginosa; Day 3)	Colony Count (Pseudomonas aeruginosa; Day 7)	further results
CC1(C)C(=O)N(CO)C(=O)N1CO [DMDMH (iv), 1,3-dihydroxymethyl-5,5-dimethyl-1,3-diazacyclopentane-2,4-dione, reference compound]	400 × 1,000	< 0.03 × 1,000	< 0.01 × 1,000	< 0.01 × 1,000	< 0.01 × 1,000	TNC	TNC	TNC	< 0.01 × 1,000	< 0.01 × 1,000	TNC	TNC	TNC	< 0.01 × 1,000	< 0.01 × 1,000	TNC	TNC	< 0.01 × 1,000	< 0.01 × 1,000	< 0.01 × 1,000	minimum inhibitory concentration (MIC) [1]: 0.1%
CCCCCCCCCCCCCCCCCC(=O)OCCOC(=O)CCCCCCCCCCCCCCCCC [EGDS, ethylene glycol distearate, reference compound]	2,000 × 1,000	500 × 1,000	300 × 1,000	200 × 1,000	700 × 1,000	600 × 1,000	350 × 1,000	TNC	TNC	2,000 × 1,000	2,000 × 1,000	TNC	TNC	TNC	TNC	3,000 × 1,000	TNC	TNC	2,500 × 1,000	TNC	biocidal effectiveness [2]: none of the three known long aliphatic chain containing emulsifiers, sodium lauryl sulfate, ethylene glycol distearate and POE 20 sorbitan monoleate, was effective as a biocide
CCCCCCCCCCCCOS(=O)(=O)[O-].[Na+] [SLS, Sodium lauryl sulfate, reference compound]	600 × 1,000	2,000 × 1,000	300 × 1,000	160 × 1,000	200 × 1,000	2,000 × 1,000	3,000 × 1,000	TNC	450 × 1,000	< 0.01 × 1,000	8,000 × 1,000	20 × 1,000	TNC	160 × 1,000	60 × 1,000	4,100 × 1,000	500 × 1,000	TNC	30 × 1,000	50 × 1,000	ΔG°cmc ([3]; Table 6): -23.23 kJ/mol; ΔG°cmc (Gibbs' Free Energy of Micellation) ([3]; calculated from cmc by Eq. 1, T=298° K.): -23.23 kJ/mol; cmc (critical micelle concentration) ([3]; ester/water solution): 4.4 × 10^-3 mol dm^-3; biocidal effectiveness [2]: none of the three known long aliphatic chain containing emulsifiers, sodium lauryl sulfate, ethylene glycol distearate and POE 20 sorbitan monoleate, was effective as a biocide
CC1(C)C(=O)NC(=O)N1CO [MDMH (iii), 1-hydroxymethyl-5,5-dimethyl-1,3-diazacyclopentane-2,4-dione]	–	–	–	–	–	–	–	–	–	–	–	–	–	–	–	–	–	–	–	–	minimum inhibitory concentration (MIC) [1]: 0.2%

— patent US5100907A, “Hydantoin esters” (Lonza, Inc., priority 1990, dated 1992)
